Data reported in patent publication US20090023731A1, “SOLUBLE EPOXIDE HYDROLASE INHIBITORS” (Arete Therapeutics, Inc., priority 2007, published 2009).

System: soluble epoxide hydrolase (sEH)
Assay: Fluorescent assay for mouse and human soluble epoxide hydrolase (CMNPC substrate)
Type: biochemical
Procedure: Recombinant mouse sEH (MsEH) and human sEH (HsEH) were produced in a baculovirus expression system as previously reported. […] The expressed proteins were purified from cell lysate by affinity chromatography. […] Protein concentration was quantified using the Pierce BCA assay using bovine serum albumin as the calibrating standard.
The IC50s for each inhibitor were according to the following procedure:
Bis/Tris HCl 25 mM pH 7.0 containing 0.1 mg/mL of BSA (buffer A) CMNPC at 0.25 mM in DMSO.
Mother solution of enzyme in buffer A (Mouse sEH at 6 μg/mL and Human sEH at 5 μg/mL). Inhibitor dissolved in DMSO at the appropriate concentration.
In a black 96 well plate, fill all the wells with 150 μL of buffer A.
Add 2 μL of DMSO in well A2 and A3, and then add 2 μL of inhibitor solution in A1 and A4 through A12.
Add […] of buffer A in row A, then mix several time and transfer […] to row B. Repeat this operation up to row H. The […] removed from row H is discarded.
Add […] of buffer A in column 1 and 2, then add […] of enzyme solution to column 3 to 12.
Incubate the plate for 5 minutes in the plate reader at 30° C.
During incubation prepare the working solution of substrate by mixing 3.68 mL of buffer A (4×0.920 mL) with 266 μL (2×133 μL) of substrate solution).
The velocities are used to analyze and calculate the IC50s.

SMILES | % Inh (inhibitor conc. 500 nM) | % Inh (inhibitor conc. 50 nM) | also measured
O=C(Nc1ccccc1)Nc1cccc(OCCCN2CCOCC2)c1 [Compound 1, 1-[3-(3-Morpholin-4-yl-propoxy)-phenyl]-3-phenyl-urea] | 62% |  | 
O=C(Nc1ccc(F)cc1)Nc1cccc(OCCCN2CCOCC2)c1 [Compound 2, 1-(4-Fluoro-phenyl)-3-[3-(3-morpholin-4-yl-propoxy)-phenyl]-urea] |  | 82% | 
O=C(Nc1cccc(OCCCN2CCOCC2)c1)Nc1c(Cl)cccc1Cl [Compound 3, 1-(2,6-Dichloro-phenyl)-3-[3-(3-morpholin-4-yl-propoxy)-phenyl]-urea] |  |  | % Inh (inhibitor conc. 50000 nM): 90%
O=C(Nc1cccc(OCCCN2CCOCC2)c1)Nc1ccc(F)c(F)c1 [Compound 4, 1-(3,4-Difluoro-phenyl)-3-[3-(3-morpholin-4-yl-propoxy)-phenyl]-urea] |  | 75% | 
O=C(Nc1cccc(OCCCN2CCOCC2)c1)Nc1ccc(F)cc1F [Compound 5, 1-(2,4-Difluoro-phenyl)-3-[3-(3-morpholin-4-yl-propoxy)-phenyl]-urea] | 78% |  | 
O=C(Nc1cccc(OCCCN2CCOCC2)c1)Nc1c(F)cc(F)cc1F [Compound 6, 1-[3-(3-Morpholin-4-yl-propoxy)-phenyl]-3-(2,4,6-trifluoro-phenyl)-urea] |  |  | % Inh (inhibitor conc. 50000 nM): 92%
O=C(Nc1cccc(OCCCN2CCOCC2)c1)Nc1c(F)c(F)c(F)c(F)c1F [Compound 7, 1-[3-(3-Morpholin-4-yl-propoxy)-phenyl]-3-pentafluorophenyl-urea] |  |  | % Inh (inhibitor conc. 5000 nM): 87%
O=C(Nc1cccc(OCCCN2CCOCC2)c1)Nc1ccc2c(c1)OCO2 [Compound 8, 1-Benzo[1,3]dioxol-5-yl-3-[3-(3-morpholin-4-yl-propoxy)-phenyl]-urea] | 91% |  | 
O=C(Nc1ccc(C(F)(F)F)cc1)Nc1cccc(OCCCN2CCOCC2)c1 [Compound 9, 1-[3-(3-Morpholin-4-yl-propoxy)-phenyl]-3-(4-trifluoromethyl-phenyl)-urea] |  | 82% | 
O=C(Nc1cccc(OCCCN2CCOCC2)c1)Nc1cccc(C(F)(F)F)c1 [Compound 10, 1-[3-(3-Morpholin-4-yl-propoxy)-phenyl]-3-(3-trifluoromethyl-phenyl)-urea] |  | 74% | 
O=C(Cc1ccc(F)cc1)Nc1cccc(OCCCN2CCOCC2)c1 [Compound 11, 2-(4-Fluoro-phenyl)-N-[3-(3-morpholin-4-yl-propoxy)-phenyl]-acetamide] |  |  | % Inh (inhibitor conc. 5000 nM): 85%
O=C(Cc1ccc2c(c1)OCO2)Nc1cccc(OCCCN2CCOCC2)c1 [Compound 12, 2-Benzo[1,3]dioxol-5-yl-N-[3-(3-morpholin-4-yl-propoxy)-phenyl]-acetamide] |  |  | % Inh (inhibitor conc. 5000 nM): 87%
O=C(Cc1cccnc1)Nc1cccc(OCCCN2CCOCC2)c1 [Compound 13, N-[3-(3-Morpholin-4-yl-propoxy)-phenyl]-2-pyridin-3-yl-acetamide] |  |  | % Inh (inhibitor conc. 50000 nM): 75%
O=C(Nc1ccccc1)Nc1ccc(OCCCN2CCOCC2)cc1 [Compound 14, 1-[4-(3-Morpholin-4-yl-propoxy)-phenyl]-3-phenyl-urea] | 90% |  | 
O=C(Nc1ccc(Cl)cc1)Nc1cccc(OCCCN2CCOCC2)c1 [Compound 15, 1-(4-Chloro-phenyl)-3-[3-(3-morpholin-4-yl-propoxy)-phenyl]-urea] |  | 94% | 
O=C(Nc1cccnc1)Nc1cccc(OCCCN2CCOCC2)c1 [Compound 16, 1-[3-(3-Morpholin-4-yl-propoxy)-phenyl]-3-pyridin-3-yl-urea] |  |  | % Inh (inhibitor conc. 50000 nM): 95%
CN(C)c1cccc(NC(=O)Nc2cccc(OCCCN3CCOCC3)c2)c1 [Compound 17, 1-(3-Dimethylamino-phenyl)-3-[3-(3-morpholin-4-yl-propoxy)-phenyl]-urea] |  |  | % Inh (inhibitor conc. 5000 nM): 95%
O=C(Nc1ccc(OCCN2CCOCC2)cc1)Nc1cccc(OCCCN2CCOCC2)c1 [Compound 18, 1-[4-(2-Morpholin-4-yl-ethoxy)-phenyl]-3-[3-(3-morpholin-4-yl-propoxy)-phenyl]-urea] | 66% |  | 
O=C(Cc1ccc(F)c(F)c1)Nc1cccc(OCCCN2CCOCC2)c1 [Compound 19, 2-(3,4-Difluoro-phenyl)-N-[3-(3-morpholin-4-yl-propoxy)-phenyl]-acetamide] |  |  | % Inh (inhibitor conc. 5000 nM): 92%
O=C(Cc1ccc(Cl)cc1)Nc1ccc(OCCCN2CCOCC2)cc1 [Compound 20, 2-(4-Chloro-phenyl)-N-[4-(3-morpholin-4-yl-propoxy)-phenyl]-acetamide] | 72% |  | 

SMILES | % Inh (inhibitor conc. 500 nM) | % Inh (inhibitor conc. 50 nM) | also measured
O=C(Nc1ccc(OCCCN2CCOCC2)cc1)Nc1ccc(C(F)(F)F)cc1 [Compound 21, 1-[4-(3-Morpholin-4-yl-propoxy)-phenyl]-3-(4-trifluoromethyl-phenyl)-urea] |  | 96% | 
O=C(Cc1ccc(Cl)cc1)Nc1cccc(OCCCN2CCOCC2)c1 [Compound 22, 2-(4-Chloro-phenyl)-N-[3-(3-morpholin-4-yl-propoxy)-phenyl]-acetamide] | 73% |  | 
O=C(Cc1ccc(OC(F)(F)F)cc1)Nc1cccc(OCCCN2CCOCC2)c1 [Compound 23, N-[3-(3-Morpholin-4-yl-propoxy)-phenyl]-2-(4-trifluoromethoxy-phenyl)-acetamide] | 86% |  | 
O=C(Cc1ccc(C(F)(F)F)cc1)Nc1cccc(OCCCN2CCOCC2)c1 [Compound 24, N-[3-(3-Morpholin-4-yl-propoxy)-phenyl]-2-(4-trifluoromethyl-phenyl)-acetamide] | 88% |  | 
O=C(Cc1ccccc1)Nc1ccc(OCCCN2CCOCC2)cc1 [Compound 25, N-[4-(3-Morpholin-4-yl-propoxy)-phenyl]-2-phenyl-acetamide] |  |  | % Inh (inhibitor conc. 5000 nM): 80%
O=C(Nc1ccc(Cl)cc1)Nc1ccc(OCCCN2CCOCC2)cc1 [Compound 26, 1-(4-Chloro-phenyl)-3-[4-(3-morpholin-4-yl-propoxy)-phenyl]-urea] |  | 88% | 
O=C(Cc1ccc(C(F)(F)F)cc1)Nc1ccc(OCCCN2CCOCC2)cc1 [Compound 27, N-[4-(3-Morpholin-4-yl-propoxy)-phenyl]-2-(4-trifluoromethyl-phenyl)-acetamide] | 83% |  | 
O=C(Nc1ccc(OC(F)(F)F)cc1)Nc1cccc(OCCCN2CCOCC2)c1 [Compound 28, 1-[3-(3-Morpholin-4-yl-propoxy)-phenyl]-3-(4-trifluoromethoxy-phenyl)-urea] |  | 90% | 
O=C(Nc1ccccc1)Nc1ccc(F)c(OCCCN2CCOCC2)c1 [Compound 29, 1-[4-Fluoro-3-(3-morpholin-4-yl-propoxy)-phenyl]-3-phenyl-urea] | 73% |  | 
O=C(Nc1ccc(Cl)cc1)Nc1ccc(F)c(OCCCN2CCOCC2)c1 [Compound 30, 1-(4-Chloro-phenyl)-3-[4-fluoro-3-(3-morpholin-4-yl-propoxy)-phenyl]-urea] | 96% |  | 
O=C(Nc1ccc(F)cc1)Nc1ccc(F)c(OCCCN2CCOCC2)c1 [Compound 31, 1-[4-Fluoro-3-(3-morpholin-4-yl-propoxy)-phenyl]-3-(4-fluoro-phenyl)-urea] | 78% |  | 
O=C(Nc1ccc(C(F)(F)F)cc1)Nc1ccc(F)c(OCCCN2CCOCC2)c1 [Compound 32, 1-[4-Fluoro-3-(3-morpholin-4-yl-propoxy)-phenyl]-3-(4-trifluoromethyl-phenyl)-urea] |  | 87% | 
O=C(Nc1ccc(OC(F)(F)F)cc1)Nc1ccc(F)c(OCCCN2CCOCC2)c1 [Compound 33, 1-[4-Fluoro-3-(3-morpholin-4-yl-propoxy)-phenyl]-3-(4-trifluoromethoxy-phenyl)-urea] |  | 83% | 
O=C(Nc1ccc(OCCCN2CCOCC2)cc1)Nc1ccc(OC(F)(F)F)cc1 [Compound 34, 1-[4-(3-Morpholin-4-yl-propoxy)-phenyl]-3-(4-trifluoromethoxy-phenyl)-urea] |  | 91% | 
O=C(Cc1ccc(OC(F)(F)F)cc1)Nc1ccc(OCCCN2CCOCC2)cc1 [Compound 35, N-[4-(3-Morpholin-4-yl-propoxy)-phenyl]-2-(4-trifluoromethoxy-phenyl)-acetamide] |  |  | % Inh (inhibitor conc. 5000 nM): 93%
O=C(Nc1cccc(OCCCN2CCOCC2)c1)c1ccc(C(F)(F)F)cc1 [Compound 36, N-[3-(3-Morpholin-4-yl-propoxy)-phenyl]-4-trifluoromethyl-benzamide] | 79% |  | 
O=C(Nc1cccc(OCCCN2CCOCC2)c1)NC1CCCCC1 [Compound 41, 1-Cyclohexyl-3-[3-(3-morpholin-4-yl-propoxy)-phenyl]-urea] |  | 96% | 
CC(C)(C)NC(=O)Nc1cccc(OCCCN2CCOCC2)c1 [Compound 42, 1-tert-Butyl-3-[3-(3-morpholin-4-yl-propoxy)-phenyl]-urea] |  |  | % Inh (inhibitor conc. 5000 nM): 79%
O=C(CC12CC3CC(CC(C3)C1)C2)Nc1cccc(OCCCN2CCOCC2)c1 [Compound 43, 2-Adamantan-1-yl-N-[3-(3-morpholin-4-yl-propoxy)-phenyl]-acetamide] |  | 93% | 
